Measurements reported in patent US20220324796A1, “ANTIBIOTIC COMPOUNDS” (The General Hospital Corporation, priority 2019, published 2022).
≈ marks a conversion by molar mass, not a printed value.

Key:
[1] = system: panel of 27 Gram-positive pathogens; assay: MIC assay, panel of Gram-positive pathogens; assay type: cell-based; details: Staphylococcus aureus; range over panel of 27 Gram-positive pathogens incl. VRSA and resistant Enterococcal strains (FIG. 6); read-out: minimum inhibitory concentrations
Procedure: (§1) Bacterial strains and growth conditions. S. aureus strains were grown in tryptic soy broth (TSB) (BD, Franklin Lakes, N.J., USA). E. faecium and E. faecalis strains were grown in brain-heart infusion (BHI) broth (BD, Franklin Lakes, N.J., USA), and four Gram-negative species, Klebsiella pneumoniae, Acinetobacter baumannii, Pseudomonas aeruginosa, and Enterobacter aerogenes were grown in Luria Bertani (LB) broth (BD, Franklin Lakes, N.J., USA). All bacteria were grown at 37° C. at 200 r.p.m.
(§2) Minimal inhibitory concentration (MIC) assay. The MICs of antibiotics were determined by the standard micro-dilution method recommended by the Clinical and Laboratory Standards Institute. MIC assays were conducted in biological triplicate.

[2] = system: daptomycin-intermediate or-resistant Enterococcal strains; assay: MIC assay, Enterococcal strains; assay type: cell-based; details: Enterococcus; range over several daptomycin-intermediate or -resistant Enterococcal strains
Procedure: as §1, §2

[3] = system: exponential-phase S. aureus MW2; assay: Killing kinetics assay; assay type: cell-based
Procedure: Killing kinetics assay. An overnight culture of S. aureus MW2 ^−was diluted in 25 mL TSB to a concentration of ˜10^5 CFU/mL. The diluted culture was grown to exponential-phase (˜2×10^7 CFU/mL) at 37° C. with shaking at 200 rpm. 1 mL of the exponential-phase culture was added to each well of a 96-well assay block (Corning Costar 3960) containing 1 mL of 2× of the desired concentrations of antibiotics dissolved in pre-warmed TSB at 37° C. The assay block was then incubated at 37° C. with shaking at 200 rpm. At every hour, 400 μl cultures were removed, washed once with PBS, serially diluted and spot-plated onto tryptic soy agar (TSA, BD) plates. The plates were incubated at 37° C. overnight, and colonies were counted to determine the titer of the cultures. These experiments were conducted in biological triplicate.

[4] = system: exponential phase MRSA MW2 cells; assay: Cell lysis by optical density; assay type: cell-based, S. aureus; details: 10 μg/mL, 4 h
[5] = system: VRSA strain VRS1 persisters; assay: Persister killing assay; assay type: cell-based, S. aureus; details: linezolid and daptomycin at 100× MIC; bithionol at indicated concentrations (FIG. 1E)
Procedure: (§3) Persister killing assay. […] Persister cells of MRSA MW2 or VRSA VRS1 were prepared by growing cultures overnight to stationary phase at 37° C. at 200 rpm and washing three times with PBS. 1 mL of ˜1×10^8 CFU/mL MRSA persisters was added to 1 mL of PBS containing a 2-fold higher concentration of the desired concentration of antibiotics in a 96-well assay block (Corning Costar 3960). For assays with daptomycin, PBS was supplemented with 50 μg/mL CaCl2. The assay block was incubated at 37° C. with shaking at 200 rpm. At various times, 400 μl samples were removed, washed once with PBS, serially diluted and spot-plated on TSA plates. Colonies were counted after overnight incubation at 37° C. to determine the titer of live cells. These experiments were conducted in triplicate.

[6] = system: stationary-phase MRSA MW2 persisters; assay: Persister killing assay; assay type: cell-based, S. aureus
Procedure: as §3

[7] = system: HKC-8 human renal proximal cells; assay: Mammalian membrane permeability assay (SYTOX Green); assay type: cell-based; details: up to 64 μg/mL
Procedure: Mammalian membrane permeability assay. Human renal proximal tubular epithelial cells (HKC-8) were grown in Dulbecco' s modified Eagle F-12 media mixed 1:1 with Ham's F-12 (DMEM/F-12, Life Technologies, Carlsbad, Calif., USA) supplemented with 10% FBS and 4 mM L-glutamine at 37° C. in 5% CO2. For membrane permeability assays, HKC-8 was cultured in black, clear-bottom, 96-well plates (Corning no. 3904) in 100 μl/well of the growth media to reach ˜70% confluence. After washing the cells twice with PBS, 50 μl of 0.25 μM SYTOX Green was added to each well. After incubating the cells at 37° C. in 5% CO2 for 15 min, the cells were treated with a range of concentrations of bithionol or the cholesterol binding detergent saponin (positive control). Fluorescence was measured at room temperature using a spectrophotometer (SpectraMax M2, Molecular Devices) with excitation and emission wavelengths of 485 nm and 525 nm, respectively. The assay was carried out in biological duplicate.
To visualize HKC-8 cells with compromised membranes, HKC-8 was cultured in 24-well plates (Corning no. 3527) until —70% confluence. After washing the cells twice with PBS, 500 μl of 1 μM SYTOX Green was added to each well. The cells were incubated at 37° C. in 5% CO2 for 15 min and then treated with 32 μg/mL (final concentration) bithionol or saponin for 1 h. […]

human erythrocytes = details: 1 h
[8] = system: Gram-positive bacteria including S. aureus, Bacilius subtilis, and Enterococcus faecium; details: previously described; cited from earlier work
[9] = system: Gram-negative bacteria including Escherichia coli and Shigella dysenteriae; details: previously described; cited from earlier work

Oc1c(Cl)cc(Cl)cc1Sc1cc(Cl)cc(Cl)c1O [bithionol, 6,6′-thio-bis-(2,4-dichlorophenol)]
MIC [1]: 0.5 to 2 µg/mL (≈ 1.4 to 5.62 µM)
MIC [2]: 0.5 to 2 µg/mL (≈ 1.4 to 5.62 µM)
time to eradicate ~10^7 CFU/mL exponential-phase S. aureus MW2 ([3]; 10 μg/mL (10× MIC)): ≤ 3 h
rate of killing ([3]; 10× MIC, compared with daptomycin and vancomycin): comparable to daptomycin (at 10× MIC) but significantly faster than the killing kinetics of vancomycin
optical density of S. aureus cells (bacteriolytic activity) [4]: time-dependent decrease in optical density
activity against VRSA VRS1 persisters [5]: highly efficacious at eradicating
time to complete eradication of stationary-phase MRSA persisters ([6]; 32 μg/mL (32× MIC)): ≤ 2 h
concentration required to completely eradicate stationary-phase MRSA persisters ([6]; 5×10^7 CFU/mL MRSA MW2 persisters): 32 µg/mL
concentrations exhibiting significant killing activity against MRSA MW2 persisters ([6]; FIG. 1C): > 16 µg/mL
viability of MRSA persisters ([6]; bithionol 8 μg/mL alone (FIGS. 1C, D)): do not lead to a significant decrease in the viability
SYTOX Green membrane permeabilization of HKC-8 cells [7]: did not induce SYTOX Green membrane permeabilization
HC50 (human erythrocytes): > 64 µg/mL
minimal inhibitory concentration (MIC) [8]: 8 to 15 µg/mL
MIC [9]: > 100 µg/mL
